Data from US20240409585A1, “MACROCYCLIC IMMUNOMODULATORS” (priority 2021, published 2024).
Like-named read-outs stand apart in the source and are kept apart here. Bridge positions count the residues as written; N and C are the ends. Square brackets hold non-standard residues; d marks the D form. Peptide text beside a SMILES is read from it. * marks the point of attachment. Phe(3-CF3) = N[C@@H](Cc1cccc(C(F)(F)F)c1)C(=O)O; Ala(morpholin-4-yl) = N[C@@H](CN1CCOCC1)C(=O)O; Bip = N[C@@H](Cc1ccc(-c2ccccc2)cc1)C(=O)O; Abu(3R-NH2) = C[C@@H](N)[C@H](N)C(=O)O; Phe(3-Me) = Cc1cccc(C[C@H](N)C(=O)O)c1; hPhe = N[C@@H](CCc1ccccc1)C(=O)O; Cha = N[C@@H](CC1CCCCC1)C(=O)O; Carboxymethyl = O=C(O)C*; NMeA = CN[C@@H](C)C(=O)O; Orn = NCCC[C@H](N)C(=O)O; Dab = NCC[C@H](N)C(=O)O

Legend:
[1] = molecular target: T1, Alexa fluor-647 labeled human PD-L1-Ig binding to Jurkat cell line over-expressing human PD-1 (Homo sapiens, UniProt Q15116); test: Jurkat-PD-1 Cell Binding High-Content Screening Assay (CBA): Method 3 (Alexa fluor-647 labeled PD-L1-Ig); conditions: Jurkat-PD-1 cells, Alexa fluor-647 labeled PD-L1-Ig 177 nM
T1 construct: expressed in transfected cells; host or cells: Jurkat
How it was run: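 Readout by high-content imaging of PFA-fixed, Hoechst-stained cells after 1 h with 177 nM (final) Alexa fluor-647 PD-L1-Ig. Compound was added first to hPD-1 Jurkat cells in RPMI plus 10% FCS for 2 h at 37 °C.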

[2] = molecular target: T2, PD1-PDL1 protein-protein binding interaction [hPD1(25-167)-hIgG, hPD-L1 (19-239)-6xHis] (Homo sapiens, UniProt Q15116); test: HTRF Assay (TR-FRET); conditions: 5 nM hPD1-hIgG, 5 nM hPD-L1-6xHis, 24 hours at 25° C., head μM
T2 construct: hPD1(25-167)-hIgG, BMS

[3] = head μM, read-out: CBA Method 3 μM

T1 sequence (Q15116 25-288): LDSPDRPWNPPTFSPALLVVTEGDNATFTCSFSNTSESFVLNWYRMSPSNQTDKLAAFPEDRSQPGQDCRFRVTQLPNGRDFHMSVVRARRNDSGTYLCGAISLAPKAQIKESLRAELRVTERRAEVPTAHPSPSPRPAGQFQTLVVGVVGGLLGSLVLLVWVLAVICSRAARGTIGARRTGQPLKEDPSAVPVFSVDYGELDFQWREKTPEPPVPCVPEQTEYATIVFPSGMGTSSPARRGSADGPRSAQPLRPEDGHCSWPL
T2 sequence (Q15116 25-167): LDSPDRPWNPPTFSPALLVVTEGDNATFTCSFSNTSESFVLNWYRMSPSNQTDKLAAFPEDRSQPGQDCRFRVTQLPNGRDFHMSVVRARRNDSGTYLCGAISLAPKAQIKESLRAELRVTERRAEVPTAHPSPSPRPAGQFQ

Q: With `CC(C)C[C@H]1NC(=O)[C@H](C)N(C)C(=O)[C@H](CCC(N)=O)NC(=O)[C@H](Cc2ccc(-c3ccccc3)cc2)NC(=O)[C@H](CCc2ccccc2)NC(=O)[C@H](Cc2cccc(C(F)(F)F)c2)NC(=O)[C@H](CC(=O)O)NC(=O)[C@H](Cc2ccc(O)cc2)NC(=O)[C@H](CN2CCOCC2)NC(=O)CSC[C@@H](C(=O)N[C@@H](CCN)C(N)=O)NC(=O)[C@H](CCCN)NC(=O)[C@H](C(C)C)NC(=O)[C@H](CC2CCCCC2)NC(=O)[C@H](CCN)NC1=O` [Example 5235] ({CH2CO}-[Ala(morpholin-4-yl)]YD[Phe(3-CF3)][hPhe][Bip]Q[NMeA][dL][Dab][Cha]V[Orn]C[Dab]-NH2; thioether N-14) as the molecule, how does the IC50 ([1]; nM, read-out: CBA Method 3) read?
A: 3.6 nM

Q: And the IC50 [2]?
A: 0.03 µM

Q: Which results are given for `CC(C)C[C@H]1NC(=O)[C@H](C)N(C)C(=O)[C@H](CCC(N)=O)NC(=O)[C@H](Cc2ccc(-c3ccccc3)cc2)NC(=O)[C@H](Cc2ccc(OCC(=O)O)cc2)NC(=O)[C@H](Cc2cccc(C(F)(F)F)c2)NC(=O)[C@H](CC(=O)O)NC(=O)[C@H](Cc2ccc(O)cc2)NC(=O)[C@H]([C@@H](C)N)NC(=O)CSC[C@@H](C(=O)N[C@@H](CCN)C(N)=O)NC(=O)[C@H](CCCN)NC(=O)[C@H](C(C)C)NC(=O)[C@H](CC2CCCCC2)NC(=O)[C@H](CCN)NC1=O` [Example 5239] ({CH2CO}-[Abu(3R-NH2)]YD[Phe(3-CF3)]Y(Carboxymethyl)[Bip]Q[NMeA][dL][Dab][Cha]V[Orn]C[Dab]-NH2; thioether N-14)?
A: IC50 [1, 3]: 20 nM; IC50 [2]: 0.02 µM

Q: How did the IC50 ([1]; nM, read-out: CBA Method 3) turn out when `Cc1cccc(C[C@@H]2NC(=O)[C@H](CC(=O)O)NC(=O)[C@H](Cc3ccc(OCC(=O)O)cc3)NC(=O)[C@H](CN3CCOCC3)NC(=O)CSC[C@@H](C(=O)N[C@@H](CCN)C(N)=O)NC(=O)[C@H](CCC(N)=O)NC(=O)[C@H](C(C)C)NC(=O)[C@H](CC3CCCCC3)NC(=O)[C@H](CCN)NC(=O)[C@@H](CC(C)C)NC(=O)[C@H](C)N(C)C(=O)[C@H](CCC(N)=O)NC(=O)[C@H](Cc3ccc(-c4ccccc4)cc3)NC(=O)[C@H](CCc3ccccc3)NC2=O)c1` [Example 5221] ({CH2CO}-[Ala(morpholin-4-yl)]Y(Carboxymethyl)D[Phe(3-Me)][hPhe][Bip]Q[NMeA][dL][Dab][Cha]VQC[Dab]-NH2; thioether N-14) was run?
A: 3 nM

Q: And the IC50 [2]?
A: 0.01 µM

Q: Which IC50 [1, 3] does the source give for `CC(C)C[C@H]1NC(=O)[C@H](C)N(C)C(=O)[C@H](CCC(N)=O)NC(=O)[C@H](Cc2ccc(-c3ccccc3)cc2)NC(=O)[C@H](CCc2ccccc2)NC(=O)[C@H](Cc2cccc(C(F)(F)F)c2)NC(=O)[C@H](CC(=O)O)NC(=O)[C@H](Cc2ccc(OCC(=O)O)cc2)NC(=O)[C@H](CN2CCOCC2)NC(=O)CSC[C@@H](C(=O)N[C@@H](CCN)C(N)=O)NC(=O)[C@H](CCC(=O)O)NC(=O)[C@H](C(C)C)NC(=O)[C@H](CC2CCCCC2)NC(=O)[C@H](CCN)NC1=O` [Example 5211] ({CH2CO}-[Ala(morpholin-4-yl)]Y(Carboxymethyl)D[Phe(3-CF3)][hPhe][Bip]Q[NMeA][dL][Dab][Cha]VEC[Dab]-NH2; thioether N-14) here?
A: 10 nM

Q: And the IC50 [2]?
A: 0.04 µM
